The values that follow come from US10537558B2 (Bantam Pharmaceutical, LLC, priority 2015, dated 2020).

Where two headings read alike, the source gives them in different places.

The assay concerns BJAB cells. The experiment in a line: BJAB cell proliferation (Cell Titer Glo). In kind it is cell-based. On the procedure: Cells were seeded in white Corning Costar 96-well assay plates at 2500 cells/well in 50 μL of medium. Serial dilutions of test compounds were made in cell culture medium/FBS+0.2% DMSO, and transferred to assay plates in a volume of 50 μL (DMSO at 0.1% final). Plates were maintained at 37° C. for approximately 72 hours. The effect of compounds on cell proliferation was evaluated using the Cell Titer Glo reagent (Promega), according to the manufacturer's instructions. Briefly, 100 μL of reagent was added per well, and after a 10 minute incubation luminescence values were determined on a plate reader (Tecan F200PRO). The percent of luminescence signal relative to untreated controls was calculated for each compound concentration, and EC50 values were determined from dose response data by non-linear regression analysis using Prism (GraphPad). The mTor inhibitor Torin1 (Liu, et al. (2010) J. Med. Chem. 53, 7146.) was used as a control. The data are summarized in the compound table provided above.
(In general: ATP-based viability assays read luminescence as a measure of living cells.)

As usually defined, the EC50 is the concentration needed to bring the measured effect to its halfway point. Consider `Cc1nn(-c2nc(-c3ccc(Cl)c(Cl)c3)c(SC(C)C)s2)cc1-c1cccc2cc[nH]c12` [Compound 128, 2-(4-(1H-indol-7-yl)-3-methyl-1H-pyrazol-1-yl)-4-(3,4-dichlorophenyl)-5-(isopropylthio)thiazole], for which the half-maximal effective concentration (EC50) (Homo sapiens, read-out: EC50) lay within 10 to 25 µM. On the same count and under the same terms, the same measure for `Cc1nn(-c2nc(-c3ccc(C(F)F)cc3)c(SC(C)C)s2)c(C(=O)O)c1-c1cccc(F)c1` [Compound 229, 1-(4-(4-(difluoromethyl)phenyl)-5-(isopropylthio)thiazol-2-yl)-4-(3-fluorophenyl)-3-methyl-1H-pyrazole-5-carboxylic acid]: 1 to 5 µM; for `Cc1nn(-c2nc(-c3ccc(C(F)(F)F)cc3N)c(SC(C)C)s2)c(C(=O)O)c1-c1cccc(F)c1` [Compound 244, 1-(4-(2-amino-4-(trifluoromethyl)phenyl)-5-(isopropylthio)thiazol-2-yl)-4-(3-fluorophenyl)-3-methyl-1H-pyrazole-5-carboxylic Acid]: 1 to 5 µM. The same measure, in the same setting: in the case of `COc1ccccc1-c1c(C)nn(-c2nc(-c3ccc(Cl)c(Cl)c3)c(SC(C)C)s2)c1C(=O)O` [Compound 114, 1-(4-(3,4-dichlorophenyl)-5-(isopropylthio)thiazol-2-yl)-4-(2-methoxyphenyl)-3-methyl-1H-pyrazole-5-carboxylic acid] it was 10 to 25 µM. On the same count and under the same terms, in the case of `Cc1cc(-c2c(C)nn(-c3nc(-c4ccc(Cl)c(Cl)c4)c(SC(C)C)s3)c2C(=O)O)ccn1` [Compound 167, 1-(4-(3,4-dichlorophenyl)-5-(isopropylthio)thiazol-2-yl)-3-methyl-4-(2-methylpyridin-4-yl)-1H-pyrazole-5-carboxylic Acid] it was 1 to 5 µM; in that of `Cc1cc(-c2c(C)nn(-c3nc(-c4ccc(C(F)(F)F)cc4)c(SC(C)C)s3)c2C(=O)O)cc(C)c1F` [Compound 241, 4-(4-fluoro-3,5-dimethylphenyl)-1-(5-(isopropylthio)-4-(4-(trifluoromethyl)phenyl)thiazol-2-yl)-3-methyl-1H-pyrazole-5-carboxylic acid], under 1 µM; in that of `CCn1cc(-c2c(C)nn(-c3nc(-c4ccc(Cl)c(Cl)c4)c(SC(C)C)s3)c2C(=O)O)cn1` [Compound 129, 2-(4-(3,4-dichlorophenyl)-5-(isopropylthio)thiazol-2-yl)-2′-ethyl-5-methyl-4,4′-bi(2H-pyrazole)-3-carboxylic Acid], 5 to 10 µM. For `COc1cc(-c2nc(-n3nc(C)c(-c4cccc(F)c4)c3C(=O)O)sc2SC(C)C)ccc1Cl` [Compound 195, 1-(4-(4-chloro-3-methoxyphenyl)-5-(isopropylthio)thiazol-2-yl)-4-(3-fluorophenyl)-3-methyl-1H-pyrazole-5-carboxylic Acid], the EC50 (Homo sapiens, read-out: EC50) lay within 5 to 10 µM. Still for that read-out and setting: in the case of `Cc1cc(Cl)cc(-c2c(C)nn(-c3nc(-c4ccc(Cl)c(Cl)c4)c(SC(C)C)s3)c2C(=O)O)c1` [Compound 147, 4-(3-chloro-5-methylphenyl)-1-(4-(3,4-dichlorophenyl)-5-(isopropylthio)thiazol-2-yl)-3-methyl-1H-pyrazole-5-carboxylic Acid] it was under 1 µM.

`Cc1nn(-c2nc(-c3ccc4nccn4c3)c(SC(C)C)s2)c(C(=O)O)c1-c1cc(Cl)cc(Cl)c1` [Compound 31, 4-(3,5-dichlorophenyl)-1-(4-(imidazo[1,2-a]pyridin-6-yl)-5-(isopropylthio)thiazol-2-yl)-3-methyl-1H-pyrazole-5-carboxylic acid]: where the note is “Homo sapiens, read-out: EC50”, the EC50 is over 25 µM. The same measure, in the same setting: in the case of `Cc1nn(-c2nc(-c3ccc(Cl)c(Cl)c3)c(SC(C)C)s2)c(C(=O)O)c1-c1cnccn1` [Compound 79, 1-(4-(3,4-dichlorophenyl)-5-(isopropylthio)thiazol-2-yl)-3-methyl-4-(pyrazin-2-yl)-1H-pyrazole-5-carboxylic Acid] it was 10 to 25 µM; in that of `Cc1nn(-c2nc(-c3ccc(Cl)c(Cl)c3)c(SC(C)C)s2)c(C(=O)Nc2nnn[nH]2)c1-c1cc(C(F)(F)F)cc(C(F)(F)F)c1` [Compound 81, 4-(3,5-bis(trifluoromethyl)phenyl)-1-(4-(3,4-dichlorophenyl)-5-(isopropylthio)thiazol-2-yl)-3-methyl-N-(1H-tetrazol-5-yl)-1H-pyrazole-5-carboxamide], over 40 µM. On the same count and under the same terms, in the case of `Cc1cc(-c2c(C)nn(-c3nc(-c4ccc(F)cc4)c(SC(C)C)s3)c2C(=O)O)cc(C)n1` [Compound 204, 4-(2,6-dimethylpyridin-4-yl)-1-(4-(4-fluorophenyl)-5-(isopropylthio)thiazol-2-yl)-3-methyl-1H-pyrazole-5-carboxylic acid] it was 1 to 5 µM; in that of `Cc1nn(-c2nc(-c3ccc(Cl)c(Cl)c3)c(SC(C)C)s2)c(C(=O)O)c1-c1cncc(C#N)c1` [Compound 69, 4-(5-cyanopyridin-3-yl)-1-(4-(3,4-dichlorophenyl)-5-(isopropylthio)thiazol-2-yl)-3-methyl-1H-pyrazole-5-carboxylic Acid], 10 to 25 µM. Same read-out and setting: the same measure for `Cc1nn(-c2nc(-c3ccc(Cl)c(Cl)c3)c(CC(C)C)s2)c(C(=O)O)c1-c1cnn(C)c1` [Compound 142, 1-(4-(3,4-dichlorophenyl)-5-isobutylthiazol-2-yl)-1′,3-dimethyl-1H,1′H-[4,4′-bipyrazole]-5-carboxylic Acid]: 1 to 5 µM. For `Cc1nn(-c2nc(-c3ccc(C(F)(F)F)nc3)c(SC(C)C)s2)c(C(=O)O)c1-c1cccc(F)c1` [Compound 258, 4-(3-fluorophenyl)-1-(5-(isopropylthio)-4-(6-(trifluoromethyl)pyridin-3-yl)thiazol-2-yl)-3-methyl-1H-pyrazole-5-carboxylic acid], the half-maximal effective concentration (EC50) (Homo sapiens, read-out: EC50) lay within 1 to 5 µM. On to `Cc1nn(-c2nc(-c3ccc(Cl)c(Cl)c3)c(SC(C)C)s2)c(C(=O)O)c1-c1cccc(F)c1` [Compound 151, 1-(4-(3,4-dichlorophenyl)-5-(isopropylthio)thiazol-2-yl)-4-(3-fluorophenyl)-3-methyl-1H-pyrazole-5-carboxylic Acid], for which the EC50 entry is “A, B”.

For the compound `CCNC(=O)c1cc(-c2nc(-n3nc(C)c(-c4cccc(F)c4)c3C(=O)O)sc2SC(C)C)ccc1Cl` [Compound 243, 1-(4-(4-chloro-3-(ethylcarbamoyl)phenyl)-5-(isopropylthio)thiazol-2-yl)-4-(3-fluorophenyl)-3-methyl-1H-pyrazole-5-carboxylic Acid], the half-maximal effective concentration (EC50) (Homo sapiens, read-out: EC50) was over 40 µM. On the same count and under the same terms, the same measure for `Cc1cc(C#N)cc(-c2c(C)nn(-c3nc(-c4ccc(Cl)c(Cl)c4)c(SC(C)C)s3)c2C(=O)O)c1` [Compound 80, 4-(3-cyano-5-methylphenyl)-1-(4-(3,4-dichlorophenyl)-5-(isopropylthio)thiazol-2-yl)-3-methyl-1H-pyrazole-5-carboxylic Acid]: 1 to 5 µM; for `Cc1nn(-c2nc(-c3ccc(Cl)c(Cl)c3)c(SC(C)C)s2)c(C(=O)O)c1-c1cc(F)cc(Cl)c1` [Compound 225, 4-(3-chloro-5-fluorophenyl)-1-(4-(3,4-dichlorophenyl)-5-(isopropylthio)thiazol-2-yl)-3-methyl-1H-pyrazole-5-carboxylic acid]: under 1 µM; for `Cc1nn(-c2nc(-c3cccnc3)c(SC(C)C)s2)c(C(=O)O)c1-c1cc(Cl)cc(Cl)c1` [Compound 30, 4-(3,5-dichlorophenyl)-1-(5-(isopropylthio)-4-(pyridin-3-yl)thiazol-2-yl)-3-methyl-1H-pyrazole-5-carboxylic acid]: over 25 µM. On to `Cc1nn(-c2nc(-c3cc(Cl)ccc3F)c(SC(C)C)s2)c(C(=O)O)c1-c1cc(Cl)cc(Cl)c1` [Compound 25, 1-(4-(5-chloro-2-fluorophenyl)-5-(isopropylthio)thiazol-2-yl)-4-(3,5-dichlorophenyl)-3-methyl-1H-pyrazole-5-carboxylic Acid], for which the half-maximal effective concentration (EC50) (Homo sapiens, read-out: EC50) is 1 to 5 µM.

As for `CCc1ccc(-c2nc(-n3nc(C)c(-c4cccc(F)c4)c3C(=O)O)sc2SC(C)C)cc1` [Compound 231, 1-(4-(4-ethylphenyl)-5-(isopropylthio)thiazol-2-yl)-4-(3-fluorophenyl)-3-methyl-1H-pyrazole-5-carboxylic Acid], the EC50 (Homo sapiens, read-out: EC50) was 1 to 5 µM. Still for that read-out and setting: in the case of `Cc1nn(-c2nc(-c3ccc(Cl)c(Cl)c3)c(SC(C)C)s2)c(C(=O)O)c1-c1ccc2nccn2c1` [Compound 17, 1-(4-(3,4-dichlorophenyl)-5-(isopropylthio)thiazol-2-yl)-4-(imidazo[1,2-a]pyridin-6-yl)-3-methyl-1H-pyrazole-5-carboxylic Acid] it was 10 to 25 µM; in that of `Cc1nn(-c2nc(-c3cc(OC(F)(F)F)ccc3Cl)c(SC(C)C)s2)c(C(=O)O)c1-c1cccc(F)c1` [Compound 209, 1-(4-(2-chloro-5-(trifluoromethoxy)phenyl)-5-(isopropylthio)thiazol-2-yl)-4-(3-fluorophenyl)-3-methyl-1H-pyrazole-5-carboxylic acid], 10 to 25 µM. Same read-out and setting: the same measure for `Cc1nn(-c2nc(-c3ccc(Cl)c(Cl)c3)c(SC(C)C)s2)c(C(=O)O)c1-c1cn[nH]c1` [Compound 109, 2-(4-(3,4-dichlorophenyl)-5-(isopropylthio)thiazol-2-yl)-5-methyl-4,4′-bi(2H-pyrazole)-3-carboxylic acid]: 25 to 50 µM. The same measure, in the same setting: in the case of `Cc1nn(-c2nc(-c3ccc(Cl)c(Cl)c3)c(SC(C)C)s2)c(C(=O)O)c1-c1ccc(NS(C)(=O)=O)cc1` [Compound 124, 1-(4-(3,4-dichlorophenyl)-5-(isopropylthio)thiazol-2-yl)-3-methyl-4-(4-(methylsulfonamido)phenyl)-1H-pyrazole-5-carboxylic acid] it was over 50 µM; in that of `Cc1nn(-c2nc(-c3ccc(Cl)c(Cl)c3)c(SC(C)C)s2)c(C(=O)O)c1C1CC1` [Compound 173, 4-cyclopropyl-1-(4-(3,4-dichlorophenyl)-5-(isopropylthio)thiazol-2-yl)-3-methyl-1H-pyrazole-5-carboxylic Acid], 10 to 25 µM.
